From PMC6941357, “An in vitro toolbox to accelerate anti-malarial drug discovery and development” (Malaria Journal, 2020)
Where “and” joins values, the source holds several entries; their conditions need not be identical. Equal values may be shown once. Read-outs that look alike come from different tables or passages of the source. Marks after values point to notes of the source that are not given here.

Tests used:
[1] = Bidirectional permeability across Caco-2 cell monolayers; conditions: human; for Papp B→A: Caco-2, pH 7.4
Procedure, shortened: (§1)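 Donor and acceptor concentrations measured by LC–MS to give Papp, mass balance and efflux ratio (mean B–A over A–B Papp). Media were pH 7.4 HEPES-buffered HBSS or human plasma on both sides; for plasma, Papp used the donor fraction unbound. Donor contained 0.1% v/v DMSO.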

Caco-2 cell monolayers [2] = assay: as above; conditions: for efflux ratio: mean B–A/A–B Papp
Procedure, shortened: as §1

[3] = Plasma protein binding via rapid equilibrium dialysis (RED), 10% plasma; type: in vitro ADME, human; conditions: human, 10% pooled plasma (diluted 1:10), pH 7.4, RED, 10% plasma corrected for dilution; for fraction unbound at 6 h: 6 h dialysis; for fraction unbound at 24 h: presaturation of device and 24 h dialysis
Experimental: (§2) Pooled human plasma (n = 3–4 donors) was obtained by centrifugation of blood (collected by the Australian Red Cross Blood Service, Melbourne, Australia or the Volunteer Blood Donor Registry, Clinical Translation Centre, Walter & Eliza Hall Institute of Medical Research, Parkville, Australia), or sourcing pooled plasma directly from commercial sources (Innovative Research Inc, MI) and stored frozen at − 80 °C.
(§3) Plasma was diluted 1:10 with pH 7.4 phosphate buffer (prepared by mixing 0.1 M sodium dihydrogen phosphate and 0.1 M disodium hydrogen phosphate (both containing 0.04 M NaCl) to pH 7.4) and spiked with compound to achieve a total measured concentration of ~ 1000–3000 ng/mL. Diluted plasma was vortex mixed briefly and aliquots (n = 3–4) were transferred to RED (Thermo Fisher Scientific, Waltham, MA) units that were placed at 37 °C under ambient atmosphere on a plate shaker. […] At the end of the dialysis period, samples were removed from both the donor and dialysate chambers of the RED units. […] Fraction unbound values were calculated for each individual RED unit and the mean and SD calculated for n = 3–4 replicates.
(§4) Briefly, the RED device was exposed for two 30 min periods and one overnight period to fresh solutions of compound prepared in pH 7.4 buffer at approximately 10% of the total dialysis concentration. Following the preincubations, solutions were removed from the RED device and discarded. […] Samples were removed and analysed as described above.
(§5) For binding assessments using 10% plasma, the unbound fraction (fu) in neat plasma was calculated using the average values for Ctotal and Cunbound and Eq.

[4] = Binding in DMEM with 10% FCS via ultracentrifugation; type: in vitro ADME, calf; conditions: bovine, DMEM with 10% FCS, pH 7.4
Experimental: (§6) Dulbecco’s Modified Eagle’s Medium (DMEM) containing GlutaMAX-I was purchased from Invitrogen (Thermo Fisher Scientific) and stored at 4 °C. Medium was prepared by adding heat inactivated foetal calf serum (FCS, final 10% v/v), penicillin (final 100 U/mL), streptomycin (final 100 µg/mL) D-glucose (final 4.0 mg/mL) and sodium pyruvate (final 0.1 mg/mL).
(§7) An ultracentrifugation method adapted from a previous publication was initially used to assess plasma protein binding and binding in the other media. […] Additional ultracentrifuge tubes containing spiked matrix were maintained at 37 °C, 5% or 10% CO2 or normal atmosphere conditions, with aliquots being taken within 0.5 h of the start and at the end of ultracentrifugation to serve as controls for the assessment of stability and to obtain a measure of the total concentration (Ctotal). Following ultracentrifugation, the pH was checked and an aliquot of protein-free supernate was taken from each ultracentrifuge tube for determination of the unbound concentration (Cunbound).
(§8) Total matrix and protein free samples were analysed using a matrix matching approach whereby each sample was mixed in a 1:1 ratio with the opposite blank medium (i.e. blank total matrix or blank protein free buffer). For example, plasma samples were mixed with blank pH 7.4 buffer whereas plasma supernatant samples were mixed with blank plasma. Each of the sample sets were then assayed against a common calibration curve prepared in a 1:1 mixture of total matrix and protein free pH 7.4 buffer. […] The standard deviation for fu was calculated using the propagation of errors approach as described previously. The potential for compound degradation was assessed by comparing the average value for Ctotal at the start and end of the experiment.

human plasma [5] = assay: Plasma protein binding via ultracentrifugation (UC); type: in vitro ADME; conditions: ultracentrifugation, neat plasma
Procedure, shortened: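 Unbound fraction from ultracentrifugation of spiked pooled donor plasma, supernate pH checked and sampled for Cunbound. Ctotal and degradation taken from 37 °C control tubes at start and end; all samples mixed 1:1 with blank plasma or pH 7.4 buffer before analysis on shared calibration.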

human plasma [6] = assay: Plasma protein binding via rapid equilibrium dialysis (RED), 10% plasma; type: in vitro ADME; conditions: RED, 10% plasma corrected for dilution
Experimental: as §2, §3, §4, §5

10% FCS in DMEM = assay: Binding in DMEM with 10% FCS via ultracentrifugation; type: in vitro ADME, calf
Experimental: as §6, §7, §8

[7] = Blood to plasma partitioning; type: in vitro ADME, human; conditions: 37 °C; for B/P (whole blood to plasma partitioning ratio): human whole blood; for blood plasma ratio at 1000 ng/mL: human, whole blood, pH 7.4, human whole blood, read-out: B/P (whole blood to plasma partitioning ratio)
Experimental: Human whole blood was collected and supplied by the Volunteer Blood Donor Registry (Clinical Translation Centre, Walter & Eliza Hall Institute of Medical Research, Parkville, Australia) and used on the day of collection. The haematocrit (Hct) was determined by centrifugation (13,000×g for 3 min using Clemets® Microhaematocrit centrifuge and Safecap® Plain Self-sealing Mylar wrapped capillary tubes) to ensure it was between 0.40 and 0.48. An aliquot was centrifuged (Heraeus, Multifuge 3 S-R; 4500×g) for 10 min to obtain plasma required for matrix matching purposes as described below.
Two aliquots of the spiked whole blood were transferred to fresh microcentrifuge tubes and maintained at 37 °C/5% CO2 in a humidified incubator. The pH was confirmed to be 7.4 ± 0.1 at the start and end of the incubation. At each time point (30 min and 4 h), one whole blood tube was removed from the incubator and mixed by gentle inversion, after which four replicate blood samples were taken and matrix matched with an equal volume of blank plasma. The remainder of the blood sample was centrifuged (Eppendorf, Mini Spin plus; 6700×g) for 2 min for the collection of 4 replicate plasma samples which were similarly matrix matched with an equal volume of blank whole blood. The 1:1 mixtures of blood/plasma were mixed, snap frozen in dry ice and stored at − 80 °C until analysis by LC–MS (Additional file 1: Table S2) against calibration standards prepared in the same mixed matrix. Any further distribution of compound into RBCs at this stage was irrelevant as the cells were lysed during the sample preparation and the total concentration in the mixed matrix was measured for both the calibration standards and samples.
The apparent whole blood-to-plasma partitioning ratio (B/P) was calculated as the ratio of the average concentration in the blood sample to that in the plasma fraction of the same whole blood sample. A standard deviation (SD) for each B/P value was calculated using the propagation of errors approach as described previously.

Caco-2 cell monolayers [8] = conditions: cited from earlier work
[9] = Caco-2, pH 7.4, A–B Papp, matrix: pH 7.4 buffer
[10] = matrix: pH 7.4 buffer, ref 31 (quinine), 78 (DSM421)
[11] = matrix: human plasma, corrected for fu
[12] = presaturation of device and 24 h dialysis

| SMILES | fraction unbound at […], 1000 ng/mL [4] | Fraction unbound, human plasma (human plasma [5]) | Fraction unbound, human plasma (human plasma [6]; 6 h dialysis) | Fraction unbound, 10% FCS in DMEM (10% FCS in DMEM) | B/P (whole blood to plasma partitioning ratio) [7] | A–B Papp (Caco-2 cell monolayers [2]; [11]) | B–A Papp (Caco-2 cell monolayers [2]; [11]) | Fraction unbound, human plasma (human plasma [6]; [12]) | also measured |
| --- | --- | --- | --- | --- | --- | --- | --- | --- | --- |
| Cc1cc(Nc2ccc(S(F)(F)(F)(F)F)cc2)n2nc(C(C)(F)F)nc2n1 [DSM265] | 0.366 ± 0.041 |  |  |  |  |  |  |  | Papp B→A [1]: 49 ± 5.1 ×10⁻⁶ cm/s; Papp A→B [1, 9]: 52.4 ×10⁻⁶ cm/s; A–B Papp (Caco-2 cell monolayers [2]; matrix: pH 7.4 buffer): 69.7 10^−6 cm/s; fraction unbound at 6 h [3]: 0.002; fraction unbound at 24 h [3]: 0.0018 ± 0.0001 |
| Cc1cc(Nc2ccc(C(F)(F)F)nc2)n2nc(C(C)(F)F)nc2n1 [DSM421] |  | 0.039 ± 0.007 | 0.035 (0.0044) | 0.615 ± 0.043 | 0.53 ± 0.03 |  |  |  | A–B Papp (Caco-2 cell monolayers [8]; [10]): 33 ± 2.5 10^−6 cm/s; B–A Papp (Caco-2 cell monolayers [8]; [10]): 46 10^−6 cm/s; efflux ratio (Caco-2 cell monolayers [8]; [10]): 1.4 |
| O=C(NCCN1CCCC1)c1cc(-c2ccc(CN3CCOCC3)cc2)nc2ccc(F)cc12 [M5717] |  | 0.34 (0.021) | 0.24 ± 0.0020^b | 0.638 ± 0.065 | 1.3 ± 0.02 |  |  |  | A–B Papp (Caco-2 cell monolayers [2]; matrix: pH 7.4 buffer): 34 ± 2.6 10^−6 cm/s; B–A Papp (Caco-2 cell monolayers [2]; matrix: pH 7.4 buffer): 39 ± 7.6 10^−6 cm/s; efflux ratio (Caco-2 cell monolayers [2]; matrix: pH 7.4 buffer): 1.1 |
| COc1cc(N[C@H](C)CCCN)c2nccc(C)c2c1Oc1ccc(Cl)c(Cl)c1 [NPC1161B] |  | 0.046 (0.0090) | < 0.0003 | 0.043 ± 0.004 | 1.09 ± 0.07 | > 300 10^−6 cm/s | > 300 10^−6 cm/s | 0.00074 ± 0.00016^c |  |
| CCc1nc(N)nc(N)c1OCCCOc1ccccc1CCC(=O)O.Cl [P218] |  | 0.13 ± 0.013 |  | 0.684 ± 0.017 | 0.56 ± 0.03 |  |  |  | B–A Papp (Caco-2 cell monolayers [2]; matrix: pH 7.4 buffer): 15 ± 1.7 10^−6 cm/s; efflux ratio (Caco-2 cell monolayers [2]; matrix: pH 7.4 buffer): 21 |
| CC(C)(C)NCc1cc(Nc2ccnc3cc(Cl)ccc23)c2c(c1O)CCCC2 [Naphthoquine] |  | 0.030 (0.0020) | 0.019 (0.0010) |  | 1.14 ± 0.10 |  |  | 0.018 ± 0.0010^c | Literature ER (Caco-2 cell monolayers [8]; Caco-2, ref [33], [35] of Additional file 1): 0.8; Literature Papp (Caco-2 cell monolayers [8]; Caco-2 A-B, ref [33]–[35] of Additional file 1): 27.3 ± 0.6 10-6 cm/sec; A–B Papp (Caco-2 cell monolayers [8]; [11]): 230 ± 32 10^−6 cm/s; B–A Papp (Caco-2 cell monolayers [8]; [11]): 180 ± 10 10^−6 cm/s; efflux ratio (Caco-2 cell monolayers [8]; matrix: human plasma): 0.8 and 0.78 |
| COc1cc(C)c2c(Oc3cccc(C(F)(F)F)c3)c(OC)cc(NC(C)CCCN)c2n1 (stereo not shown) [Tafenoquine] | 0.038 ± 0.001 |  |  |  |  |  |  |  | Papp A→B ([1]; Caco-2, A–B Papp, matrix: human plasma, corrected for fu): > 300 ×10⁻⁶ cm/s; fraction unbound at 6 h [3]: < 0.0007; fraction unbound at 24 h [3]: 0.0007 ± 0.00017; blood plasma ratio at 1000 ng/mL [7]: 1.3 ± 0.04 |
| COc1cc2[nH]c(C)c(-c3ccc(Oc4ccc(OC(F)(F)F)cc4)cc3)c(=O)c2cc1Cl [ELQ300] |  | 0.011 (0.0020) | < 0.0001 | 0.001 ± 0.001 | 0.53 ± 0.05 | > 300 10^−6 cm/s | > 300 10^−6 cm/s | 0.00010 ± 0.000010^c |  |
| C[C@H]1c2cccc(O)c2C(=O)C2=C(O)[C@]3(O)C(=O)C(C(N)=O)=C(O)[C@@H](N(C)C)[C@@H]3[C@@H](O)[C@@H]21 [Doxycyclin] | 0.44 ± 0.07 |  |  |  |  |  |  |  | Papp B→A [1]: 4.2 ± 0.29 ×10⁻⁶ cm/s; Papp A→B [1, 9]: < 5 ×10⁻⁶ cm/s; A–B Papp (Caco-2 cell monolayers [2]; matrix: pH 7.4 buffer): 3.4 ± 0.23 10^−6 cm/s; fraction unbound at 6 h [3]: 0.23 ± 0.09 |
| CS(=O)(=O)O.FC1CCN(CCOc2ccc(C3CCC4(CC3)OOC3(OO4)C4CC5CC(C4)CC3C5)cc2)CC1 (stereo not shown) [TDD-E209] |  | 0.094 (0.011) | < 0.0001 |  | 0.51 ± 0.08 | > 300 10^−6 cm/s | > 300 10^−6 cm/s | < 0.0001^c |  |
| CC(C)(C)NCc1cc(C(C)(C)C)cc(-c2cnc(C(F)(F)F)c(F)c2)c1O [JPC3210] |  | 0.071 | 0.0011 (0.0002) | 0.227 ± 0.012 | 0.54 ± 0.04 | > 300 10^−6 cm/s | > 300 10^−6 cm/s |  |  |
| CN(C)C[c-]1cccc1CNc1ccnc2cc(Cl)ccc12.[Fe+2].c1cc[cH-]c1 (stereo not shown) [Ferroquine] |  | 0.070 (0.0080) |  | 0.364 ± 0.026 | 1.6 ± 0.15 | 32 ± 6.8 10^−6 cm/s | 24 ± 4.1 10^−6 cm/s | 0.041 ± 0.0010^c | efflux ratio (Caco-2 cell monolayers [2]; matrix: human plasma): 0.8 |
| CCN(CC)CCCNc1ccnc2cc(Cl)ccc12.Cl.Cl [AQ-13] |  | 0.43 ± 0.022 |  |  | 3.15 ± 0.20 | 25 ± 2.3 10^−6 cm/s | 32 ± 0.8 10^−6 cm/s |  | efflux ratio (Caco-2 cell monolayers [2]; matrix: human plasma): 1.2 |
| Clc1ccc2c(N3CCN(CCCN4CCN(c5ccnc6cc(Cl)ccc56)CC4)CC3)ccnc2c1 [Piperaquine] | 0.092 ± 0.003 |  |  |  |  |  |  |  | fraction unbound at 24 h [3]: 0.0003 ± 0.0001; blood plasma ratio at 1000 ng/mL [7]: 0.57 ± 0.05; A–B Papp (Caco-2 cell monolayers [8]; [11]): > 300 10^−6 cm/s; B–A Papp (Caco-2 cell monolayers [8]; [11]): > 300 10^−6 cm/s |
| COc1ncnc(NS(=O)(=O)c2ccc(N)cc2)c1OC [Sulfadoxine] | 0.86 ± 0.044 |  |  |  |  |  |  |  | Papp B→A [1]: 23 ± 2.8 ×10⁻⁶ cm/s; Papp A→B [1, 9]: 15 ± 2.5 ×10⁻⁶ cm/s; fraction unbound at 6 h [3]: 0.025 |
